Assays:
Test in all cases: Radiometric protein kinase assay (33PanQinase), Assay Condition A (thiol containing)
Assay type in all cases: biochemical
CDK12 wt/CycK = CDK12 wt/CycK (Homo sapiens (Human), UniProt Q9NYV4); details: thiol containing (1.2 mM DTT), ATP 0.3 μM
Experimental: (§1) The IC50 profile of test compounds was determined using three protein kinases.
(§2) The compounds were provided as pre-weighed powders in vials. The compounds were dissolved to 1×10^−02M by adding DMSO. 100 μl of each of the resulting stock solutions were transferred into column 2 of four 96 well “master plates”.
(§3) Prior to testing, the 1×10^−02M stock solutions in column 2 of the master plates were subjected to a serial, semi-logarithmic dilution using 100% DMSO as a solvent. […] Column 1 and 7 were filled with 100% DMSO as controls. Subsequently, 2×10 μl from each well of the serial diluted copy plates were aliquoted with a 96 channel pipettor into two identical sets of “compound dilution plates”.
(§4) In the process, 90 μl H2O were added to each well of a set of compound dilution plates. To minimize potential precipitation, the H2O was added to each plate only a few minutes before the transfer of the compound solutions into the assay plates. Each plate was shaken thoroughly, resulting in a “compound dilution plate/10% DMSO”.
(§5) For the assays, 5 μl solution from each well of the compound dilution plates/10% DMSO were transferred into the assay plates. The final volume of the assay was 50 μl. All compounds were tested at 10 final assay concentrations in the range from 1×10^−04M to 3×10^−09M, in singlicate. The final DMSO concentration in the reaction cocktails was 1% in all cases.
(§6) All protein kinases were expressed in Sf9 insect cells or in E. coli as recombinant GST-fusion proteins or His-tagged proteins, either as full-length or enzymatically active fragments. All kinases were produced from human cDNAs and purified by either GSH-affinity chromatography or immobilized metal. Affinity tags were removed from a number of kinases during purification. The purity of the protein kinases was examined by SDS-PAGE/Coomassie staining, the identity was checked by mass spectroscopy.
(§7) A radiometric protein kinase assay (^33PanQinase® Activity Assay) was used for measuring the kinase activity of the three protein kinases. All kinase assays were performed in 96-well FlashPlates™ from PerkinElmer (Boston, Mass., USA) in a 50 μl reaction volume. The reaction cocktail was pipetted in four steps in the following order: • 20 μl of assay buffer (standard buffer) • 5 μl of ATP solution (in H2O) • 5 μl of test compound (in 10% DMSO) • 20 μl enzyme/substrate mix
(§8) The reaction cocktails were incubated at 30° C. for 60 minutes. The reaction was stopped with 50 μl of 2% (v/v) H3PO4, plates were aspirated and washed two times with 200 μl 0.9% (w/v) NaCl. Incorporation of ^33Pi was determined with a microplate scintillation counter (Microbeta, Wallac). All assays were performed with a BeckmanCoulter/SAGIAN™ Core System.
(§9) The median value of the counts in column 1 (n=8) of each assay plate was defined as “low control”. This value reflects unspecific binding of radioactivity to the plate in the absence of a protein kinase but in the presence of the substrate. The median value of the counts in column 7 of each assay plate (n=8) was taken as the “high control”, i.e. full activity in the absence of any inhibitor. The difference between high and low control was taken as 100% activity.
(§10) As part of the data evaluation the low control value from a particular plate was subtracted from the high control value as well as from all 80 “compound values” of the corresponding plate. The residual activity (in %) for each well of a particular plate was calculated by using the following formula: Res. Activity (%)=100×[(cpm of compound−low control)/(high control−low control)]
(§11) The residual activities for each concentration and the compound IC50 values were calculated using Quattro Workflow V3.1.1 (Quattro Research GmbH, Munich, Germany). […] The fitting method used was a least-squares fit.

CDK2/CycA2 = CDK2/CycA2 (Homo sapiens (Human), UniProt P24941); details: thiol containing (1.2 mM DTT), ATP 0.3 μM
Experimental: as §1, §2, §3, §4, §5, §6, §7, §8, §9, §10, §11

CDK7/CycH/MAT1 = CDK7/CycH/MAT1 (Homo sapiens (Human), UniProt P50613); details: thiol containing (1.2 mM DTT), ATP 3.0 μM
Chain of CDK7/CycH/MAT1 (P50613 whole entry): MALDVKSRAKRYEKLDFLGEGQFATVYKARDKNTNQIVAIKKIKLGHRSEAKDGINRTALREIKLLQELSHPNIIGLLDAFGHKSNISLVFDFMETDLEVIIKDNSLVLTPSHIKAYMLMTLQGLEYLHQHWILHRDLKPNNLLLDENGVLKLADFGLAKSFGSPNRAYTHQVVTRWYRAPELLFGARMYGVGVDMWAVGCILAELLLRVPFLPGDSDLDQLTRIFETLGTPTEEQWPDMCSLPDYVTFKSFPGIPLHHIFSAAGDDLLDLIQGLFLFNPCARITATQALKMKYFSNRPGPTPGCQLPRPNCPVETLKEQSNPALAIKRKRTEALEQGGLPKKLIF
Chain of CDK7/CycH/MAT1 (P51946 whole entry partner): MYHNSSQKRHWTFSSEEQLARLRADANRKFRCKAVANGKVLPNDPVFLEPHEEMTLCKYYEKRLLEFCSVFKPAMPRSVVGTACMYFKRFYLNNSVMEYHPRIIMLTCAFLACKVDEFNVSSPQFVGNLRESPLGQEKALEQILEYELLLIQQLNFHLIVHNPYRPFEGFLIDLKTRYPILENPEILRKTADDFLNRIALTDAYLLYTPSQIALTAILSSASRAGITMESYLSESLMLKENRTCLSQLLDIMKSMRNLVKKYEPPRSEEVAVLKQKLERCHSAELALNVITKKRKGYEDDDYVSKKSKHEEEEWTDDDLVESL
Chain of CDK7/CycH/MAT1 (P51948 whole entry partner): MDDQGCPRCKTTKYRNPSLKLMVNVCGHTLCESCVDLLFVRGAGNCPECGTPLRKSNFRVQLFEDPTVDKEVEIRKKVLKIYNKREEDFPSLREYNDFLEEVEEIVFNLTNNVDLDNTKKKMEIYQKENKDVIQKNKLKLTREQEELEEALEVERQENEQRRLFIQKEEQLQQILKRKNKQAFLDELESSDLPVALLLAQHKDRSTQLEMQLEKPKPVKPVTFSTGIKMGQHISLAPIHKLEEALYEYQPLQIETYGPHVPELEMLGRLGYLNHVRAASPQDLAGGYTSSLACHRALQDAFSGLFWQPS
Experimental: as §1, §2, §3, §4, §5, §6, §7, §8, §9, §10, §11

Chain of CDK12 wt/CycK (Q9NYV4 whole entry): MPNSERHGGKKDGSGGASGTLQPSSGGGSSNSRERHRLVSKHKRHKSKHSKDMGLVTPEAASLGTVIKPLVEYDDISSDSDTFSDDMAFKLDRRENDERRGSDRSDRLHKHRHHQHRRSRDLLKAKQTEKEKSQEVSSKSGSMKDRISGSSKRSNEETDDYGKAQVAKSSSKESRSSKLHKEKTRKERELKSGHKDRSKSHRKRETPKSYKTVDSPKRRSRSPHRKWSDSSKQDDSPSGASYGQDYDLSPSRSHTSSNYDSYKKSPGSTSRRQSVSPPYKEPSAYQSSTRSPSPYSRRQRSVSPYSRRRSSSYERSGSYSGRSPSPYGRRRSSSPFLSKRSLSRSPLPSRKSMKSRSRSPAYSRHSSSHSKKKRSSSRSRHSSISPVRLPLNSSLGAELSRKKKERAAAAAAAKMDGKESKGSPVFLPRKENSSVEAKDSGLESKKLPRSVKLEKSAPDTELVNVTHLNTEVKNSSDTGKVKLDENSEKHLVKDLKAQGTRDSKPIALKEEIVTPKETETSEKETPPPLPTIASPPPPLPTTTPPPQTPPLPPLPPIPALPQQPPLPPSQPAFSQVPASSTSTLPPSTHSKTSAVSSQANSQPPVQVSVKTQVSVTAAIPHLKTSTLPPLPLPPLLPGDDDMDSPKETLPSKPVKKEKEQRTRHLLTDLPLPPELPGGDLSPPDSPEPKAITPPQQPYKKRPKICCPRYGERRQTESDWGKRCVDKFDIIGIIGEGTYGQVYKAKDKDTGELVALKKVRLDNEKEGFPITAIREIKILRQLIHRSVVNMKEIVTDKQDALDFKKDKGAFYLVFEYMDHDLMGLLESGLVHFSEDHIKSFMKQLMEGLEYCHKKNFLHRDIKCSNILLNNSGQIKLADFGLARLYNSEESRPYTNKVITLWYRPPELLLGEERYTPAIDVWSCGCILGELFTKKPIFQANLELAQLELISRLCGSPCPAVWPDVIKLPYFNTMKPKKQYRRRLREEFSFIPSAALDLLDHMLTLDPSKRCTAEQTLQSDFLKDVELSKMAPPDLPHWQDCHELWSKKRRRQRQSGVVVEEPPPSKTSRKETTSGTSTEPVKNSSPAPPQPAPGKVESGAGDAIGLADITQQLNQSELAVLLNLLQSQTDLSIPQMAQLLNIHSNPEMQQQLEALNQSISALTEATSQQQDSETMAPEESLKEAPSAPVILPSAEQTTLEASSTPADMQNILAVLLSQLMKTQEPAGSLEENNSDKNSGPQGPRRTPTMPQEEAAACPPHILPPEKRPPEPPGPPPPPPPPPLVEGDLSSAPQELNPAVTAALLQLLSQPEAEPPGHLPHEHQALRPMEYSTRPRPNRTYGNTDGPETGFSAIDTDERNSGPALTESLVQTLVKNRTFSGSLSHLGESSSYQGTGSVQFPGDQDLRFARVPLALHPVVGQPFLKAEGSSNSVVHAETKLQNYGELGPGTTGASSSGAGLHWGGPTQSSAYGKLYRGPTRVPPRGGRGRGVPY
Chain of CDK12 wt/CycK (O75909 whole entry partner): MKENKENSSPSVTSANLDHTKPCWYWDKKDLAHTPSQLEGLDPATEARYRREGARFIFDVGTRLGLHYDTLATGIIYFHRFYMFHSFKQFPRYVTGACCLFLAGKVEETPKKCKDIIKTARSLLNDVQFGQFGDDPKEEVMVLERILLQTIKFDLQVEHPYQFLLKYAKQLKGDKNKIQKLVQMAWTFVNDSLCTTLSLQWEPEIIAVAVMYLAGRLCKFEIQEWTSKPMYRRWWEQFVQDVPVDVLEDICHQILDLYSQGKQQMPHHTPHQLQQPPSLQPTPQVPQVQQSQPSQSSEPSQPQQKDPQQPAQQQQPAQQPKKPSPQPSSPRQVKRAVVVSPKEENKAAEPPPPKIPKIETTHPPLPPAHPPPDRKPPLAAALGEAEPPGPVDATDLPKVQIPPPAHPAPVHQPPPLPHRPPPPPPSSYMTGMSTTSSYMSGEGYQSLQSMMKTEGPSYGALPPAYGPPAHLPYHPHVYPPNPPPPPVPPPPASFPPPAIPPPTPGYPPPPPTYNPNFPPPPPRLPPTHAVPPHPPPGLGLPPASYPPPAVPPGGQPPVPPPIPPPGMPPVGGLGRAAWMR

| IC50 (CDK12 wt/CycK) [nM] | IC50 (CDK2/CycA2) [nM] | IC50 (CDK7/CycH/MAT1) [nM] | Structure (SMILES) |
| --- | --- | --- | --- |
| 100 to 1000 | 100 to 1000 | 1000 to 10000 | CCC(=O)Nc1ccc(C(=O)N2CC[C@@H](Nc3ncc4ccc(S(C)(=O)=O)cc4n3)C2)cc1 [Example 52, (R)—N-(4-(3-((7-(methylsulfonyl)quinazolin-2-yl)amino)pyrrolidine-1-carbonyl)phenyl)propionamide] |
| 100 to 1000 | 100 to 1000 | 1000 to 10000 | CCC(=O)Nc1ccc(C(=O)N2CC[C@@H](Nc3ncc4ccc(Cl)cc4n3)C2)cc1 [Example 53, (R)—N-(4-(3-((7-chloroquinazolin-2-yl)amino)pyrrolidine-1-carbonyl)phenyl)propionamide] |
| 100 to 1000 | 1000 to 10000 | 1000 to 10000 | CCC(=O)Nc1ccc(C(=O)N2CC[C@@H](Nc3ncc4ccc(F)cc4n3)C2)cc1 [Example 54, (R)—N-(4-(3-((7-fluoroquinazolin-2-yl)amino)pyrrolidine-1-carbonyl)phenyl)propionamide] |
| 100 to 1000 | 100 to 1000 | 1000 to 10000 | CCC(=O)Nc1ccc(C(=O)N2CC[C@@H](Nc3ncc4ccc(C#N)cc4n3)C2)cc1 [Example 55, (R)—N-(4-(3-((7-cyanoquinazolin-2-yl)amino)pyrrolidine-1-carbonyl)phenyl)propionamide] |
| ≤ 100 | ≤ 100 | 100 to 1000 | CCC(=O)Nc1ccc(C(=O)N2CC[C@@H](Nc3ncc4ccc(C(=O)O)cc4n3)C2)cc1 [Example 56, (R)-2-((1-(4-propionamidobenzoyl)pyrrolidin-3-yl)amino)quinazoline-7-carboxylic Acid] |
| ≤ 100 | ≤ 100 | ≤ 100 | CCC(=O)Nc1ccc(C(=O)N2CC[C@@H](Nc3ncc4ccc(C(N)=O)cc4n3)C2)cc1 [Example 57, (R)-2-((1-(4-propionamidobenzoyl)pyrrolidin-3-yl)amino)quinazoline-7-carboxamide] |
| ≤ 100 | ≤ 100 | 100 to 1000 | CCC(=O)Nc1ccc(C(=O)N2CC[C@@H](Nc3ncc4ccc(C(=O)N(C)C)cc4n3)C2)cc1 [Example 59, (R)—N,N-dimethyl-2-((1-(4-propionamidobenzoyl)pyrrolidin-3-yl)amino)quinazoline-7-carboxamide] |
| ≤ 100 | 1000 to 10000 | 1000 to 10000 | CCC(=O)Nc1ccc(C(=O)N2CC[C@@H](Nc3ncc4ccc(=O)[nH]c4n3)C2)cc1 [Example 60, (R)—N-(4-(3-((7-oxo-7,8-dihydropyrido[2,3-d]pyrimidin-2-yl)amino)pyrrolidine-1-carbonyl)phenyl)propionamide] |
| ≤ 100 | 100 to 1000 | 100 to 1000 | CC#CC(=O)Nc1ccc(C(=O)N2CC[C@@H](Nc3ncc4ccccc4n3)C2)cc1 [Example 77, (R)—N-(4-(3-(quinazolin-2-ylamino)pyrrolidine-1-carbonyl)phenyl)but-2-ynamide] |
| 100 to 1000 | 1000 to 10000 | 1000 to 10000 | C=CC(=O)Nc1ccc(C(=O)N2CC[C@@H](Nc3ncc4c(F)cccc4n3)C2)cc1 [Example 91, (R)—N-(4-(3-((5-fluoroquinazolin-2-yl)amino)pyrrolidine-1-carbonyl)phenyl)acrylamide] |

Continued, compound first:

| Structure (SMILES) | IC50 (CDK12 wt/CycK) [nM] | IC50 (CDK2/CycA2) [nM] | IC50 (CDK7/CycH/MAT1) [nM] |
| --- | --- | --- | --- |
| C=CC(=O)Nc1ccc(C(=O)N2C[C@H](Nc3ncc4ccccc4n3)[C@@H](F)C2)cc1 [Example 63, N-(4-((3S,4S)-3-fluoro-4-(quinazolin-2-ylamino)pyrrolidine-1-carbonyl)phenyl)acrylamide] | 100 to 1000 | 10000 to 30000 | 1000 to 10000 |
| C=CC(=O)Nc1ccc(C(=O)N2CC(Nc3ncc4ccccc4n3)C2)cc1 [Example 64, N-(4-(3-(quinazolin-2-ylamino)azetidine-1-carbonyl)phenyl)acrylamide] | 1000 to 10000 | 1000 to 10000 | 10000 to 30000 |
| CN(C)C/C=C/C(=O)Nc1ccc(C(=O)N2CC[C@@H](Nc3ncc4ccccc4n3)C2)cc1 [Example 65, (R,E)-4-(dimethylamino)-N-(4-(3-(quinazolin-2-ylamino)pyrrolidine-1-carbonyl)phenyl)but-2-enamide] | 100 to 1000 | 100 to 1000 | 100 to 1000 |
| CN(C)C/C=C/C(=O)Nc1ccc(C(=O)N2CCC[C@@H](Nc3ncc4ccccc4n3)C2)cc1 [Example 66, (R,E)-4-(dimethylamino)-N-(4-(3-(quinazolin-2-ylamino)piperidine-1-carbonyl)phenyl)but-2-enamide] | 1000 to 10000 | 30000 to 100000 | 30000 to 100000 |
| C=CC(=O)Nc1c(C)cc(C(=O)N2CC[C@@H](Nc3ncc4ccccc4n3)C2)cc1F [Example 75, (R)—N-(2-fluoro-6-methyl-4-(3-(quinazolin-2-ylamino)pyrrolidine-1-carbonyl)phenyl)acrylamide] | 1000 to 10000 | 10000 to 30000 | 10000 to 30000 |
| C=CC(=O)Nc1ccc(C(=O)N2CC[C@@H](Nc3ncc4ccccc4n3)C2)c(C)c1 [Example 78] | 100 to 1000 | 1000 to 10000 | 1000 to 10000 |
| C=CC(=O)N1CCOc2cc(C(=O)N3CC[C@@H](Nc4ncc5ccccc5n4)C3)ccc21 [Example 80, (R)-1-(7-(3-(quinazolin-2-ylamino)pyrrolidine-1-carbonyl)-2H-benzo[b][1,4]oxazin-4(3H)-yl)prop-2-en-1-one] | ≤ 100 | 100 to 1000 | 100 to 1000 |
| COc1cc(C(=O)N2CC[C@@H](Nc3ncc4ccccc4n3)C2)ccc1NC(=O)/C=C/CN(C)C [Example 81, (R,E)-4-(dimethylamino)-N-(2-methoxy-4-(3-(quinazolin-2-ylamino)pyrrolidine-1-carbonyl)phenyl)but-2-enamide] | 100 to 1000 | 1000 to 10000 | 100 to 1000 |
| CN(C)C/C=C/C(=O)Nc1ccc(C(=O)N2CC[C@@H](Nc3ncc4ccccc4n3)C2)cc1Cl [Example 82, (R,E)-N-(2-chloro-4-(3-(quinazolin-2-ylamino)pyrrolidine-1-carbonyl)phenyl)-4-(dimethylamino)but-2-enamide] | 100 to 1000 | 1000 to 10000 | 100 to 1000 |
| CN(C)C/C=C/C(=O)N1CCOc2cc(C(=O)N3CC[C@@H](Nc4ncc5ccccc5n4)C3)ccc21 [Example 84, (R,E)-4-(dimethylamino)-1-(7-(3-(quinazolin-2-ylamino)pyrrolidine-1-carbonyl)-2H-benzo[b][1,4]oxazin-4(3H)-yl)but-2-en-1-one] | 100 to 1000 | 1000 to 10000 | 100 to 1000 |
| C=CC(=O)Nc1cccc(C(=O)N2CC[C@@H](Nc3ncc4ccccc4n3)C2)c1 [Example 87, (R)—N-(3-(3-(quinazolin-2-ylamino)pyrrolidine-1-carbonyl)phenyl)acrylamide] | 100 to 1000 | 100 to 1000 | 100 to 1000 |
| CN(C)C/C=C/C(=O)N1CCCc2cc(C(=O)N3CC[C@@H](Nc4ncc5ccccc5n4)C3)ccc21 [Example 89, (R,E)-4-(dimethylamino)-1-(6-(3-(quinazolin-2-ylamino)pyrrolidine-1-carbonyl)-3,4-dihydroquinolin-1(2H)-yl)but-2-en-1-one] | 100 to 1000 | 1000 to 10000 | 100 to 1000 |
| C=CC(=O)Nc1ccc(C(=O)N2CC[C@@H](Nc3ncc4cccc(F)c4n3)C2)cc1 [Example 90, (R)—N-(4-(3-((8-fluoroquinazolin-2-yl)amino)pyrrolidine-1-carbonyl)phenyl)acrylamide] | 100 to 1000 | 1000 to 10000 | 1000 to 10000 |

Source: patent publication US11447493B2 (Kinnate Biopharma Inc., priority 2018, dated 2022)
